Source: patent US20240132464A1, “HETEROCYCLIC COMPOUNDS AS E3 LIGASE INHIBITORS” (Accutar Biotechnology Inc., priority 2022, published 2024)

These compounds were tested against T1, GID4 (Uniprot ID: Q81VV7, residues 124-289) (Homo sapiens, UniProt Q8IVV7) (assay: GID4 competitive binding assay (AlphaScreen, GID4/degron peptide PGLW)). Details: 24 nM GID4, 48 nM biotinylated degron peptide PGLW, 4° C., read-out: IC50 (Inhibition of GID4/Degron binding by test compounds).
T1 construct: GID4 (Uniprot ID: Q81VV7, residues 124-289)
T1 sequence (Q8IVV7 124-289): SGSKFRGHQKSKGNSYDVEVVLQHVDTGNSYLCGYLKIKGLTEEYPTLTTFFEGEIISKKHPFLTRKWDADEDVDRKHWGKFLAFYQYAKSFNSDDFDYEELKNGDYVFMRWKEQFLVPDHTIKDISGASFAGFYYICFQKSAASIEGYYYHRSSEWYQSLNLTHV
Experimental: GID4 Competitive Binding Assay
GID4 binding affinity of compounds disclosed herein was measured by monitoring the interaction of GID4 with its degron peptide (PGLW) in the presence of the test compounds. A truncated version of GID4 (Uniprot ID: Q81VV7, residues 124-289) with a 6*His at its C-terminus was used in this assay. Tetrapeptide, PGLW, was synthesized and tagged with an additional lysine labeled with biotin at its sidechain.
GID4 competitive binding assays were performed in a 384-well plate at 4° C. in a 20 μL reaction volume. Briefly, 24 nM GID4 (final concentration) proteins were pre-incubated with 48 nM biotinylated degron peptide (final concentration) in an assay buffer containing 20 mM HEPES, pH 7.5, 100 mM NaCl, 1 mM DTT, 0.1% Tween-20, and 0.05% BSA in the presence of the test compound in 2% DMSO (final concentration) at various concentrations for 2 h. 5 ug/ml Streptavidin ALphaScreen donor beads and 5 ug/ml nickel chelate (Ni-NTA) ALphaScreen acceptor beads (PerkinElmer, 6760619C) (final concentrations) were then added to the mixture. After an incubation of 1 h at 4° C., the fluorescent signals were obtained on the EnVision® 2105 Multilabel Plate Reader (PerkinElmer).
Raw ALphaScreen data were converted to a percentage of inhibition (relative to DMSO) using the following equations: […]
For a given test compound concentration X:
Signal (X)=Signal (GID4 & peptide & compound)−Signal (GID4 & buffer & compound)
Percentage of inhibition at concentration X=[1−Signal(X)/Signal (DMSO)]*100% b)
The IC50 values were determined by nonlinear regression of plots of [inhibitor] vs. percentage of inhibition with variable slope.
Table 3 summarizes the inhibition of binding between GID4 and degron peptide with compounds of the present disclosure. Compounds were ranked into bins as follows for IC50: A indicates <500 nM; B indicates 500 nM-5000 nM; C indicates >5000 nM.
Compound `Cc1cc(N2CCCC(c3cnc4ccccn34)C2)nc(N)n1` (centres unmarked) [Compound 147, 4-(3-(imidazo[1,2-a]pyridin-3-yl)piperidin-1-yl)-6-methylpyrimidin-2-amine] has an IC50 of 500 to 5000 nM.
With `CC(C)c1cc(N2CCCC(c3cnc4ccccn34)C2)c2nc[nH]c2n1` (centres unmarked) [Compound 19, 7-(3-(imidazo[1,2-a]pyridin-3-yl)piperidin-1-yl)-5-isopropyl-3H-imidazo[4,5-b]pyridine] the IC50 was < 500 nM.
`CC(C)c1cc(N2CCCC(c3c[nH]c4ccccc34)C2)nc(N)n1` (centres unmarked) [Compound 249, 4-(3-(1H-indol-3-yl)piperidin-1-yl)-6-isopropylpyrimidin-2-amine] showed an IC50 of 500 to 5000 nM.
In the case of `CN1CC(CNC(=O)c2n[nH]c3ccc(-c4ccc5ccnc(N)c5c4)cc23)C1` [Compound 334, 5-(1-aminoisoquinolin-7-yl)-N-((1-methylazetidin-3-yl)methyl)-1H-indazole-3-carboxamide], the IC50 is reported as < 500 nM.
In the case of `CNc1cc(N2CCCC(c3cnc4ccccn34)C2)nc(C(C)C)n1` (single isomer, unassigned) [Compound 125, (S/R)-6-(3-(imidazo[1,2-a]pyridin-3-yl)piperidin-1-yl)-2-isopropyl-N-methylpyrimidin-4-amine], the IC50 is reported as 500 to 5000 nM.
`CC(C)c1cc(N2CCN(C)C(c3ccccc3Br)C2)nc(N)n1` (single isomer, unassigned) [Compound 160, (R/S)-4-(3-(2-bromophenyl)-4-methylpiperazin-1-yl)-6-isopropylpyrimidin-2-amine] was tested, and the IC50 was 500 to 5000 nM.
`CN(C)CCCNC(=O)c1cc(-c2cc(O)c3ncccc3c2)c[nH]1` [Compound 269, N-(3-(dimethylamino)propyl)-4-(8-hydroxyquinolin-6-yl)-1H-pyrrole-2-carboxamide] was tested, and the IC50 was < 500 nM.
`CCc1cc(N2CCNC(c3cnc4ccccn34)C2)nc(N)n1` (single isomer, unassigned) [Compound 28, (S/R)-4-ethyl-6-(3-(imidazo[1,2-a]pyridin-3-yl)piperazin-1-yl)pyrimidin-2-amine] was tested, and the IC50 was < 500 nM.
With `Cn1nccc1-c1cc(N2CC3CCC(C2)N3)nc2c(-c3cc[nH]n3)nccc12` [Compound 364, 2-(3,8-diazabicyclo[3.2.1]octan-3-yl)-4-(1-methyl-1H-pyrazol-5-yl)-8-(1H-pyrazol-3-yl)-1,7-naphthyridine] the IC50 was > 5000 nM.
Work on `CNc1nc(N)cc(N2CCNC(c3ccccc3Br)C2)n1` (single isomer, unassigned) [Compound 113, (R/S)-6-(3-(2-bromophenyl)piperazin-1-yl)-N2-methylpyrimidine-2,4-diamine] yielded an IC50 of 500 to 5000 nM.
With `CNc1cc(N2CCNC(c3ccccc3Br)C2)nc(N)n1` (centres unmarked) [Compound 167] the IC50 was < 500 nM.
For `CNc1cc(N2CCN(C)[C@H](c3ccccc3Br)C2)nc(N)n1` (stereo in doubt) [Compound 154], the IC50 was 500 to 5000 nM.
With `Nc1nccc2ccc(-c3ccc4[nH]nc(C(=O)NC[C@H]5CC[C@@H](O)CC5)c4c3)cc12` [Compound 333, 5-(1-aminoisoquinolin-7-yl)-N-((cis-4-hydroxycyclohexyl)methyl)-1H-indazole-3-carboxamide] the IC50 was < 500 nM.
With `CC(C)c1nc(N2CCNC(c3cnc4ccccn34)C2)c2nc[nH]c2n1` (centres unmarked) [Compound 373, 6-(3-(imidazo[1,2-a]pyridin-3-yl)piperazin-1-yl)-2-isopropyl-9H-purine] the IC50 was < 500 nM.
In the case of `Nc1nccc2ccc(-c3cc(C(=O)N4CCCC4)cc4c3CCCC4)cc12` [Compound 342, (4-(1-aminoisoquinolin-7-yl)-5,6,7,8-tetrahydronaphthalen-2-yl)(pyrrolidin-1-yl)methanone], the IC50 is reported as 500 to 5000 nM.
With `CCOc1ccc(Br)c(C2CN(c3cc(C(C)C)nc(N)n3)CCN2)c1` (single isomer, unassigned) [Compound 26, (S/R)-4-(3-(2-bromo-5-ethoxyphenyl)piperazin-1-yl)-6-isopropylpyrimidin-2-amine] the IC50 was 500 to 5000 nM.
`CC(C)c1cc(N2CCN(C)[C@@H](c3ccccc3Br)C2)nc(N)n1` (racemic) [Compound 161, (S/R)-4-(3-(2-bromophenyl)-4-methylpiperazin-1-yl)-6-isopropylpyrimidin-2-amine] gave an IC50 of 500 to 5000 nM.
